Assay results: patent publication US12702670B2, “Compositions and methods for treating breast cancer” (The Regents of the University of California, priority 2020, dated 2026)
“Also recorded” adds a separate entry of the source.

What was measured:
4T1 TNBC cells = assay: Murine 4T1 TNBC model in syngeneic BALB/c mice; assay type: in vivo
Description: FIG. 6A-D show a combination treatment of BMS with anti PD-L1 checkpoint antibody suppresses 4T1 TNBC xenograft progression in vivo. TNBC 4T1 cells (2×105) were implanted in the mammary fat pads of BALB/c female mice (6-week old) using established methods. Mice were then randomized for treatment when tumor volumes were approx. 200 mm3. Mice were treated with either vehicle control (Con), BMS 10 mg/kg, by oral gavage, daily (BMS), anti-PD-L1 checkpoint antibody from Biolegend (anti-CD274/B7-H1/PD-L1 clone 10F.9G2, 100 μg/mouse IP in PBS, Q3 days) (Ab) or combination therapy with BMS and anti-PD-L1 antibody (BMS+Ab). Tumor sizes were recorded Q 2-3 days; and mice were weighed twice weekly. Studies used 5 mice/group.
TNBC clinical trials have shown a potential benefit of anti-PD-L1 antibodies as ICIs for anti-TNBC therapy. […] Thus, 4T1 cells were implanted in mammary fat pads of female syngeneic BALB/c mice to assess antitumor efficacy of BMS-754807 alone and combined with anti-PD-L1 antibodies in mice with intact immune systems (FIG. 6). After 10 days of treatment, tumors were harvested and processed for mass cytometry analyses to assess changes in immune cell subsets under different treatment conditions in FIG. 6.

murine 4T1 TNBC = assay: Cell viability of murine 4T1 TNBC in vitro; assay type: cell-based
Description: After seeding TNBC cells for 24 hr, cells were exposed to selected combinations of BMS-754807 (20 μM), enzalutamide (20 μM), and NVP-AEW541 (8 μM) for 72 h. Cell viability was tested by CellTiter 96® aqueous non-radioactive cell proliferation assay (error bar=SEM; n=8; **P<0.001 *P<0.05). Results shown as % of vehicle treated controls.

AR = AR levels in TNBC cells; assay type: cell-based; settings: in vitro
[1] = system: IGF2-expressing TNBC cells; settings: in vitro; statement carries reference 1; cited from earlier work
[2] = system: IGF2-expressing TNBC cells; assay: TNBC cell proliferation in vitro; assay type: cell-based, human; settings: alone and combined
[3] = system: MDA-MB-231 TNBC cell line; assay: Scratch wound migration assay (IncuCyte S3); assay type: cell-based, human; settings: media conditioned with IGF2 alone (100 ng/ml), 48 h
Description: (§1) MDA-MB-231 and HCC 1937 TNBC cell lines were cultured in complete media in 96-welled plates. In each well 60,000 cells were plated. Scratch wounds were made using Unique WoundMaker™. Wound images were collected every 2 h for 48 h using the IncuCyte S3 Live-Cell Analysis System. Media containing IGF2 (100 ng/ml) was refreshed daily. […] Magnification 100×. P<0.05. […] Magnification 100×. P<0.05. FIGS. 4C & D show conditioned media containing a combination of IGF1R/IR antagonists. […] BMS/NVP=BMS-754807 (20 uM) and NVP-AEW541 (8 uM).
(§2) In vitro TNBC cell migration is stimulated in media conditioned with IGF2 alone (FIGS. 4A & 4B).

HCC 1937 TNBC cell line = assay: Scratch wound migration assay (IncuCyte S3); assay type: cell-based; settings: media conditioned with IGF2 alone (100 ng/ml), 48 h
Description: as §1, §2

| Molecule | tumor volume / TNBC progression (4T1 TNBC cells; BALB/c mice, 4T1 in mammary fat pads, BMS 10 mg/kg oral gavage daily, anti-PD-L1 antibody 100 μg/mouse IP Q3 days) | myeloid derived suppressor cells (MDSCs), total and PMN-MDSC, in tumors (4T1 TNBC cells; mass cytometry of 4T1 tumors harvested after 10 days of treatment, BMS 10 mg/kg oral daily, Ab 100 μg IP Q3 days) | effector CD8+ and CD4+ tumor infiltrating lymphocytes (TILs) (4T1 TNBC cells; mass cytometry of 4T1 tumors, BMS 10 mg/kg oral daily, Ab 100 μg IP Q3 days) | cell viability (murine 4T1 TNBC) | levels of ARs in TNBC cells (AR) | human TNBC cell proliferation [1] | anti-proliferative effects on IGF2-expressing TNBC cells [2] | cell migration [3] | cell migration (HCC 1937 TNBC cell line) |
| --- | --- | --- | --- | --- | --- | --- | --- | --- | --- |
| C[C@@]1(C(=O)Nc2ccc(F)nc2)CCCN1c1nc(Nc2cc(C3CC3)n[nH]2)c2cccn2n1 [BMS-754807] | markedly reduced tumor volume; also recorded: significant antitumor effects | decreased levels | significantly increased | Reduction of cell viability | decrease levels of ARs | reduce human TNBC cell proliferation | anti-proliferative effects | – | – |
| Nc1ncnc2c1c(-c1cccc(OCc3ccccc3)c1)cn2C1CC(CN2CCC2)C1 (centres unmarked) [NVP-AEW541] | – | – | – | – | decrease levels of ARs | – | anti-proliferative effects | – | – |
| IGF2: insulin-like growth factor 2, hormone added to media at 100 ng/ml | – | – | – | – | – | – | – | stimulated | stimulated |
